# Counter-ions that a name gives are not always drawn.
# Columns and labels:
# Assay type in all cases: cell-based, mouse
# [1] = system: HP1-mediated gene repression; experiment: UNC2524 structure-activity relationship assay, CiA:Oct4 N118/N163 flow cytometry; conditions: 10 μM, 48 hrs
# Procedure: Day 0, CiA:Oct4 N118/163 cells were grown in ES media and seeded at a density of 10,000 cells per well (100,000 cells/mL) into gelatin coated 96 well plates. Day 1, media was aspirated and replaced with 100 μL fresh ES media containing +/−6 nM rapamycin and 10 μM of each compound derived for SAR. Day 2, culture media was aspirated away and […] fresh ES media containing +/−6 nM rapamycin and 10 μM of compounds were added as on Day 1. Day 3, the media was aspirated out of the wells and the cells were washed with PBS and trypsinized using 0.25% trypsin-EDTA. Trypsin was quenched with serum. Cells were resuspended by pipetting to prepare the plates for flow cytometry analysis as described above.
# Compounds 2-8 were chemically synthesized from UNC2524 (compound 1) (FIG. 10A). To ascertain the biological activity of these chemical derivatives, CiA:Oct4 N118/N163 cells were used. Cells were treated with rapamycin plus compounds 2 and 5-8 for 48-hours prior to analysis by flow cytometry. Compound activity was confirmed by an increase in % inhibition compared to control samples. Compounds 5 and 6 added a pentenal chain and BOC group to the piperidine ring while compound 7 substituted a hexyl chain for the pyrrolidine. […] Further, it was identified that the 7-methoxy side chain was amenable to modification with a benzene ring in compound 8, while preserving most of the biological activity (˜51%).
# Referring to FIG. 10A, a series of compounds derived from compound 1 (UNC2524) were designed to optimize compound activity and determine amenability of compounds for affinity purification methods. Referring to FIG. 10B, CiA:Oct4 N118/N163 cells were treated with SAR compounds at 10 μM for 48 hrs+/−6 nM rapamycin. Flow cytometry analysis was used to determine the % GFP (+) population. […] (p≤0.05*, 0.01**).
# CiA:Oct4 N118/N163 cells = experiment: Compound 2 activity and fluorescence microscopy; conditions: 7.5 μM, 48 hrs
# Procedure: Day 0, CiA:Oct4 N118/N163 cells were plated into 96 well plate and 10 or 15 cm plate formats. Day 1, media was aspirated and replaced with fresh ES media +/−7.5 μM compound 2+/−6 nM rapamycin. Day 2, media was aspirated and replaced with fresh ES media +/−7.5 μM compound 2+/−6 nM rapamycin. Day 3, media was removed from 96 well plate and cells were washed with PBS prior to trypsinization and flow cytometry analysis as described above to confirm functional inhibition of compound 2.
# Prior to imaging, ES media was removed from 10-15 cm plates and replaced with PBS to decrease background fluorescence. Cells were imaged using an Olympus IX71 microscope analyzed using Cellsens software. Representative images were taken in 2 random plate locations for each of the four conditions. Image levels were normalized using Adobe Photoshop.
# In order to confirm that compound 2 was inhibiting H3K9me3 deposition, CiA:Oct4 N118/N163 cells were grown for 48-hours with rapamycin mediating HP1 recruitment, +/−compound 2 (FIG. 11G). Representative brightfield and fluorescence images were taken for the four sample types ((−) rapamycin/(−) compound 2, (−) rapamycin/(+) compound 2, (+) rapamycin/(−) compound 2, (+) rapamycin/(+) compound 2). […] Subsequently, all samples were analyzed by flow cytometry to confirm the inhibitory effects of compound 2 on HP1-mediated gene repression. […]
# H3K9me3 = experiment: ChIP-qPCR at CiA:Oct4 locus, TSS+489; conditions: 48 hr, + 6 nM rapamycin, 489 bp downstream of TSS
# Procedure: 10-15 cm plates of cells grown to confluence were washed with PBS and trypsinized 10 min with 0.25% trypsin-EDTA. ES media was added to quench the trypsin, and cells were resuspended prior to counting using a Countess II Automated Cell Counter (ThermoFisher). Cell suspension was centrifuged at 300×g for 5 min. Cell pellet was washed with PBS and pelleted at 300×g for 5 min. Cells were resuspended and crosslinked with 1% formaldehyde for 10 min. 2.5 M glycine (0.125 M final) was added and samples were put on ice to stop the crosslinking. […]
# Enrichment of ChIP DNA was determined by qPCR. […] Samples were analyzed using the comparative ΔΔCt method and normalized against an intergenic control region (Hathaway et al., 2012; Livak & Schmittgen, 2001). […]
# Chromatin immunoprecipitation (ChIP) was used to determine the levels of H3K9me3 at the Oct4 locus upon treatment with compound 2. […] For this reason, the levels of H3K9me3 were analyzed at 489 bp downstream of the TSS in all four sample conditions. qPCR was used to amplify this region in addition to an intergenic control region. […]
# (§1) Referring to FIG. 11A, CiA:Oct4 csHP1α recruiting cells were incubated with 7.5 μM compound 2+/−6 nM rapamycin for 48 hrs and representative brightfield and GFP fluorescence images were acquired at 20×. […] GFP expression was analyzed by flow cytometry. […]
# G9a = experiment: ChIP-qPCR at CiA:Oct4 locus, TSS+489; conditions: four treatment conditions
# Procedure: (§2) 10-15 cm plates of cells grown to confluence were washed with PBS and trypsinized 10 min with 0.25% trypsin-EDTA. ES media was added to quench the trypsin, and cells were resuspended prior to counting using a Countess II Automated Cell Counter (ThermoFisher). Cell suspension was centrifuged at 300×g for 5 min. Cell pellet was washed with PBS and pelleted at 300×g for 5 min. Cells were resuspended and crosslinked with 1% formaldehyde for 10 min. 2.5 M glycine (0.125 M final) was added and samples were put on ice to stop the crosslinking. Nuclei were isolated by incubating cells on ice for 10 min in CiA NP Rinse 1 (50 mM HEPES pH 8.0, 140 mM NaCl, 1 mM EDTA, 10% glycerol, 0.5% NP40, 0.25% Triton X100). Nuclei were pelleted at 1200×g for 5 min at 4° C. and resuspended in CiA NP Rinse 2 (10 mM Tris pH 8.0, 1 mM EDTA, 0.5 mM EGTA, 200 mM NaCl). Nuclei were pelleted at 1200×g for 5 min at 4° C. Nuclei were resuspended in shearing buffer (0.1% SDS, 1 mM EDTA pH 8, 10 mM Tris HCl, pH 8) and sonicated for 5 min using a Covaris sonicator (Hathaway et al., 2012). Input DNA and ChIP DNA was isolated according to Active Motif High Sensitivity ChIP-IT kit procedure. ChIP for H3K9me3 used Abcam (ab8898) primary antibody.
# (§3) Enrichment of ChIP DNA was determined by qPCR. 384-well PCR plates contained 2 μL of template DNA and 8 μL of reaction mix of primers and FastStart Universal SYBR Green 2× master mix (Roche). Samples were run on a ViiA7 Real-Time PCR system (Applied Biosystems) (Pattenden et al., 2016). Plates were setup in technical duplicate or triplicate. Samples were analyzed using the comparative ΔΔCt method and normalized against an intergenic control region (Hathaway et al., 2012; Livak & Schmittgen, 2001). Experiment was performed in a minimum biological triplicate and data is representative of sample average. T-test were used to determine significant p-values.
# (§4) To further characterize the effects of compound 2 on the HP1-heterochromatin pathway, perturbations in the levels of HP1γ, H3K4me3, and G9a at the CiA:Oct4 locus were assayed for using ChIP followed by […] analysis. Enrichment levels were determined at 489 bp downstream of the TSS and normalized to a house-keeping gene, intracisternal A-type particles (IAP). As shown previously, HP1γ functions similarly to HP1α in our inhibition assay. […] No change in H3K4me3 levels were detected upon compound 2 treatment despite the decrease in H3K9me3 (FIG. 11E). […]
# as §1
# H3K4me3 = experiment: ChIP-qPCR at CiA:Oct4 locus, TSS+489; conditions: 48 hr treatment, +/- rapamycin
# Procedure: as §2, §3, §4, §1
# HP1γ = experiment: ChIP-qPCR at CiA:Oct4 locus, TSS+489
# Procedure: as §2, §3, §4, §1
structure (smiles),measurement,setting,value
"COc1cc2nc(N3CCCC3)nc(N[C@@H]3CCCNC3)c2cc1OC [compound 2, (R)-6,7-Dimethoxy-N-(Piperidin-3-yl)-2-(Pyrrolidin-1-yl)Quinazolin-4-Amine Trifluoroacetic Acid Salt]",% inhibition compared with parent compound 1,[1]; + 6 nM rapamycin,increase in activity over the parent
same,ES cell differentiation and colony morphology,CiA:Oct4 N118/N163 cells; +/- 6 nM rapamycin,did not result in gross cell differentiation or effect colony morphology
same,GFP expression by flow cytometry compared to untreated controls,CiA:Oct4 N118/N163 cells; with and without rapamycin,increased GFP expression
same,Decrease of H3K9me3 enrichment compared to plus rapamycin control,H3K9me3,~9 fold
same,Change in G9a levels,G9a,No significant changes
same,Change in H3K4me3 levels,H3K4me3,No change
same,Increase of HP1γ levels compared to controls,"HP1γ; compound alone, no HP1 recruitment",46%
same,Decrease of HP1γ levels compared to HP1 recruitment alone,HP1γ; with HP1 recruitment (rapamycin),37%
"C=CCCCN1CCC[C@H](Nc2nc(N3CCCC3)nc3cc(OC)c(OC)cc23)C1 [compound 5, (S)-6,7-Dimethoxy-N-(1-(Pent-4-en-1-yl)Piperidin-3-yl)-2-(Pyrrolidin-1-yl)Quinazolin-4-Amine, Trifluoroacetic Acid Salt]",% inhibition compared with parent compound 1,[1]; + 6 nM rapamycin,decrease in inhibition
"COc1cc2nc(N3CCCC3)nc(N[C@@H]3CCCN(C(=O)OC(C)(C)C)C3)c2cc1OC [compound 6, Tert-Butyl (R)-3-((6,7-Dimethoxy-2-(Pyrrolidin-1-yl)Quinazolin-4-yl)Amino)Piperidine-1-Carboxylate]",% inhibition compared with parent compound 1,[1]; + 6 nM rapamycin,decrease in inhibition
"CCCCCCNc1nc(N[C@H]2CCCNC2)c2cc(OC)c(OC)cc2n1 [compound 7, (S)—N^2-Hexyl-6,7-Dimethoxy-N^4-(Piperidin-3-yl)Quinazoline-2,4-Diamine]",Toxicity in SAR assay,[1],toxicity and low cell counts
same,% inhibition compared with parent compound 1,[1]; + 6 nM rapamycin,decrease in inhibition
"COc1cc2c(N[C@H]3CCCNC3)nc(N3CCCC3)nc2cc1OCCCN1CCCCC1 [compound 8, (S)-6-Methoxy-7-(3-(Piperidin-1-yl)Propoxy)-N-(Piperidin-3-yl)-2-(Pyrrolidin-1-yl)Quinazolin-4-Amine Trifluoroacetic Acid Salt]",Biological activity preserved,[1]; + 6 nM rapamycin,~51%

# — US11254654B2, “Heterochromatin gene repression inhibitors” (The University of North Carolina at Chapel Hill, priority 2017, dated 2022)
